Data on one compound can be found in EPA's ToxValDB 9.5 (doi:10.2903/j.efsa.2010.1822).

The test system of data set [1] is Anas platyrhynchos. As to conditions: short-term; oral; feed; mortality.
Data set [2] concerns Apis mellifera. As to conditions: acute; duration: 48 hours; dermal; mortality.
The test system of data set [3] is Bibionidae. As to conditions: chronic/long-term; duration: 28 days.
Data set [4] deals with Canidae. As to conditions: chronic; duration: 52 weeks; oral; Dog Other; histopathology: nonneoplastic.
In data set [5] the test system is Colinus virginianus. As to conditions: acute; oral; mortality.
Data set [6] deals with Coturnix japonica. As to conditions: reproduction developmental.
Data set [7] has as its system Daphnia magna. As to conditions: chronic/long-term; duration: 21 days; reproduction.
The test system of data set [8] is Hypoaspis aculeifer. As to conditions: chronic/long-term.
In data set [9] the test system is Lepomis macrochirus. As to conditions: acute; duration: 96 hours; mortality.
Data set [10] has as its system Oncorhynchus mykiss. As to conditions: chronic/long-term; duration: 28 days; other.
For data set [11], the system named is Rattus norvegicus.
Data set [12] concerns Tagia sp.
Data set [13] deals with Aphidius rhopalosiphi. Kind of data set: LR50; higher = less toxic. As to conditions: not reported; mortality.

SMILES strings stand for the structures.

In the case of `COC(=O)[N-]S(=O)(=O)c1ccc(N)cc1.[Na+]` [Asulam-sodium], the LD50 in data set [1] was greater than 22700 mg/kg-day; in data set [2] it was greater than 100 µg/piece; in [5] it was greater than 1830 mg/kg; in data set [11] (acute, oral, mortality), greater than 4560 mg/kg. Also, the NOEC was found to be 91.3 mg/L in [3]; 6.4 mg/L in [7]; 4370 mg/kg in data set [8]; 119 mg/L in data set [10]; 181 mg/kg in data set [12] (chronic/long-term, duration: 56 days). The NOAEL (in general, the highest tested level that showed no adverse finding) in data set [4] was 100 mg/kg-day; in [11] (chronic, duration: 2 years, hematological), 36 mg/kg-day. Also, in data set [6], the NOAEC turned out to be 65 mg/kg-day. For the same compound, the NOEL is 19 mg/kg-day in [6] and 46 mg/kg-day in [11] (reproduction developmental, reproduction). For the same compound, the LC50 is greater than 91.3 µg/mL in data set [9] and 1000 mg/kg in data set [12] (acute, duration: 14 days, mortality). In addition, the LR50 in [13] was determined as 3090 mL/ha.
